Patent US8889638B2, “Stimulus-triggered prodrugs” (The Regents of the University of California, priority 2010, dated 2014)

Tests used:
[1] = Solubility in buffered solution / water; assay type: physicochemical; details: relative to the parent analog
[2] = Cleavage of boronic ester/acid protected compounds by H2O2 (UV-Vis, rate constant, HPLC); assay type: physicochemical; details: for k, pseudo first-order rate constants calculated with an excess of H2O2: 50 μM in HEPES buffer pH 7.5, room temperature; for rate constant of conversion with an excess of H2O2: pseudo-first order conditions, HEPES buffer
Experimental: (§1) Absorption spectra of compounds B1-B16 were taken on a Perkin-Elmer Lambda 25 UV-visible spectrophotometer. To a 1.0 mL solution at 0.05 mM concentration in HEPES buffer (50 mM, pH 7.5) was added H2O2 (10 uL (0.09 M) in HEPES for compounds B1-B12 and B14-B16, 10 uL (0.9 M) in HEPES for compound B3, and 2.8 uL (0.09 M) in HEPES for compound B13). Spectra were monitored over time at room temperature. Absorption spectra of compounds B17-B21 were taken on a Perkin-Elmer Lambda 25 UV-visible spectrophotometer. To a 1.0 mL solution at 0.05 mM concentration of compounds 1-7 in HEPES buffer (50 mM, pH=7.5) was added H2O2 (10 uL, 0.09 M in HEPES) or KO2 (0.10 mM) with catalase (5 U). Hydrolytic stability was measured by monitoring samples of B19-B21 in HEPES buffer for a 24 h time period. Spectra were monitored over time at room temperature.
The pseudo-first order rate constant was calculated by monitoring the absorption spectra over time in the presence of excess hydrogen peroxide. To a 1.0 mL solution of compounds B1-B3 and B10-B14 in HEPES buffer (50 mM, pH 7.5) at 50 μM was added H2O2 to final concentrations of 150 μM, 250 μM, 500 μM, 750 μM, and 900 μM. Spectra were monitored over 15-30 min at room temperature with at least 50 spectra recorded. The change in absorption at 302 nm for B1-B3, 272 nm for B10, 312 nm for B11, 268 for B12, 306 nm for B13, and 303 nm for B14 were monitored. For compounds B1-B3 and B10-B11, the rate constant (kobs) was found from monitoring the appearance of the monitored absorption peak by plotting the linear slope of ln [(A∞−At)/(A∞)] vs. time (where A∞ is the absorbance of a 50 μM sample of the methyl salicylate for B1-B3, maltol for B10, and 1,2-HOPO for B11). For compounds B12-B14 the rate constant (kobs) was found from monitoring the disappearance of the monitored absorption peak by plotting the linear slope of ln [(A−AZBG)/(A0−AZBG)] vs. time (where AZBG is the absorbance of a 50 μM sample of the ZBG and A0 is the initial absorbance of […]).^3 The rate of conversion was determined from the slope of the line of kobs vs. [H2O2]. The pseudo-first order rate constant was calculated following literature procedure.^[15] To a 1.0 mL solution of compounds B19-B21 in HEPES buffer at 50 μM was added H2O2 to final concentrations of 150 μM, 250 μM, 500 μM, 750 μM, and 900 μM. Spectra were monitored over 15-30 min at room temperature with at least 50 spectra recorded. The change in absorption at 292 nm for B19 and 252 nm for B20 and B21 were monitored. The rate constant (kobs) was found from the linear slope of ln [(A−AZBG)/(A0−AZBG)] vs. time (where AZBG is the absorbance of a 50 μM sample of the ZBG and A0 is the initial absorbance of B19-B21). The rate of conversion was determined from the slope of the line of kobs vs. [H2O2].
Analytical HPLC was performed on a HP Series 1050 system equipped with a Vydac® C18 reverse phase column (218 TP, 250×4.6 mm, 5 μm). […] Starting with 95% A and 5% B, an […] gradient was run for 15 min to a final solvent mixture of 5% A and 95% B, which was held for 5 min before ramping back down to 95% A and 5% B in 2 min and holding for an additional 4 min. Compounds were prepared in HEPES buffer (50 mM, pH 7.5) at a concentration of 1 mM. Retention times of compounds were determined under identical HPLC conditions prior to and after reaction with H2O2. LC-MS(+) was performed on compounds B6, B15 and B16 to confirm cleavage of the boronic ester to the phenolic moiety.

[3] = Cleavage of sulfonate ester PZBGs and proMMPi by H2O2 (UV-Vis, rate constant, HPLC); assay type: physicochemical; details: 50 μM in HEPES buffer, room temperature
Experimental: (§2) Absorption spectra of compounds were taken on a Perkin-Elmer Lambda 25 UV-Visible Spectrophotometer. To a 1.0 mL solution at 0.05 mM concentration of each compound in HEPES buffer (50 mM, pH 7.5) was added H2O2 (10 μL, 0.09M in HEPES) and absorption spectra were monitored over time at room temperature. Hydrolytic stability was measured by monitoring each sample in HEPES buffer over a 24 hour time period.
The pseudo-first order rate constant was calculated following literature procedure. To a 1.0 mL solution of compounds PZBG-1a, PZBG-1b, PZBG-1e, PZBG-5a, and PZBG-5b in HEPES buffer at 50 μM was added H2O2 to final concentrations of 150 μM, 250 μM, 500 μM, 750 μM, and 900 μM. Spectra were monitored over 15-30 min at room temperature with at least 50 spectra recorded at every concentration. The change in absorption at 298 nm for PZBG-1a and PZBG-1b were monitored, while the change in absorption at 288 nm was recorded for PZBG-1e, and 310 nm for PZBG-5a and PZBG-5b. The rate constant (kobs) was found from the linear slope of ln [(A−AZBG)/(Ao−AZBG)] vs. time where AZBG is the absorbance of a 50 μM sample of the ZBG or full-length inhibitor and AO is the initial absorbance of PZBG-1a, PZBG-1b, PZBG-1e, PZBG-5a, and PZBG-5b. The rate of conversion was determined from the slope of the line of kobs vs. [H2O2].
Analytical HPLC was performed on a HP Series 1050 system equipped with a Vydac® C18 reverse phase column (218 TP, 250×4.6 mm, 5 μm). […] Starting with 95% A and 5% B, an […] gradient was run for 15 min to a final solvent mixture of 5% A and 95% B, which was held for 5 min before ramping back down to 95% A and 5% B in 2 min and holding for an additional 4 min. Compounds ZBG-1a and PZBG-1a were prepared in HEPES buffer (50 mM, pH 7.5) at a concentration of 1 mM and retention times were determined. To evaluate cleavage by H2O2, a 1 mM solution of PZBG-1a in HEPES buffer was reacted with a 20-fold excess of H2O2 before analyzing under identical HPLC conditions as before.

[4] = Hydrolytic stability of sulfonate esters in HEPES buffer; assay type: physicochemical; details: in 6 h
Experimental: as §2

[5] = Hydrolytic stability of boronic ester compounds in HEPES buffer; assay type: physicochemical; details: 24 h time period
Experimental: as §1

[6] = Stability of protected ZBGs towards KO2 with catalase; assay type: physicochemical; details: KO2 0.10 mM and catalase 5 U, 60 min
Experimental: as §1

MMP-3 = MMP-3 (Homo sapiens, UniProt P08254); details: read-out: IC50 against MMP-3; cited from earlier work
MMP-12 = MMP-12 (Homo sapiens, UniProt P39900); details: read-out: IC50 against MMP-12; cited from earlier work
MMP-8 = MMP-8 (Homo sapiens, UniProt P22894); details: read-out: IC50 against MMP-8; cited from earlier work
[7] = target: T1, MMP-9 (catalytic domain, human, recombinant) (Homo sapiens, UniProt P14780); assay: MMP-9 inhibition assay of boronic ester proinhibitors (IC50; activation with H2O2); assay type: biochemical; details: active inhibitor; read-out: IC50 against MMP-9
T1 construct: MMP-9 (catalytic domain, human, recombinant); purchased BIOMOL International
Experimental: MMP-9 (catalytic domain, human, recombinant) and MMP-12 (catalytic domain, human, recombinant) were purchased from Enzo Life Sciences. The assays were carried out in 96-well plates using a Bio-Tek Flx 800 plate reader. IC50 values were obtained for proinhibitors B17 and B18 against MMP-9 and MMP-12. Serial dilutions of the compounds dissolved in DMSO were incubated at 37° C. for 30 minutes with 20 μL of the appropriate MMP (0.45 U/mL for MMP-9 and 0.35 U/mL for MMP-12) in MMP assay buffer (50 mM HEPES, 10 mM CaCl2, 0.10% Brij-35, pH 7.5), for a total volume of 99 pt. The reaction was initiated by the addition of 1 μL (400 μM) of the fluorescent substrate (Mca-Pro-Leu-Gly-Leu-Dpa-Ala-Arg-NH2 where Mca=(7-methoxycoumarin-4-yl)-acetyl and Dpa=N-3-(2,4-dinitrophenyl)-L-α-β-diaminopropionyl)) and kinetic activity was measured every minute for 20 min with excitation and emission wavelengths at 335 nm and 405 nm, respectively. Measurements were performed in duplicate. The percent inhibition was plotted versus the inhibitor concentration. A linear fit of the data for each experiment gives the IC50 value of the inhibitor where y=50%.
MMP activity in the presence of H2O2 was evaluated with both MMP-9 and MMP-12 with 1 h of activation at concentrations close to their IC50 values. Using the calculated rate constants for the protected ZBGs B19 and B20, it was determined that 1 h of activation time for each proinhibitor with 100 μM H2O2 will provide enough 1,2-HOPO-2 or PY-2 to inhibit the MMPs at 50%. For example, for proinhibitor B17 with MMP-9, if the rate=k[B17][H2O2] and k=3.9 M^−1s^−1, [B17]=10 μM, and [H2O2]=100 μM, the rate of conversion would be 3.9×10^−9 M/s. Therefore, activation for 1 h would release 14 μM 1,2-HOPO-2, or enough inhibitor to provide approximately 50% inhibition of MMP-9 (IC50 value for 1,2-HOPO-2 against MMP-9 is ˜6 μM).
In each well, 1 μL of proinhibitors B17 and B18 and the inhibitors 1,2-HOPO-2 and PY-2 in DMSO (1 mM for MMP-9 or 5 μM for MMP-12) were incubated for 1 h at 37° C. with 10 μL H2O2 (1 mM in HEPES buffer, pH 7.5) in MMP assay buffer for a total volume of 79 pt. […] After activation of the proinhibitors, 20 μL of the appropriate MMP (0.45 U/mL for MMP-9 and 0.35 U/mL for MMP-12) was added and incubated for an additional 30 min. The reaction was initiated by the addition of 1 pt (400 μM) of the fluorescent substrate and kinetic activity was measured every minute for 20 min with excitation and emission wavelengths at 335 nm and 405 nm, respectively. Enzyme activity with inhibitor was calculated with respect to the control experiment (no inhibitor present). Measurements were performed in duplicate in two independent experiments.

MMP-12, sequence (P39900 106-470): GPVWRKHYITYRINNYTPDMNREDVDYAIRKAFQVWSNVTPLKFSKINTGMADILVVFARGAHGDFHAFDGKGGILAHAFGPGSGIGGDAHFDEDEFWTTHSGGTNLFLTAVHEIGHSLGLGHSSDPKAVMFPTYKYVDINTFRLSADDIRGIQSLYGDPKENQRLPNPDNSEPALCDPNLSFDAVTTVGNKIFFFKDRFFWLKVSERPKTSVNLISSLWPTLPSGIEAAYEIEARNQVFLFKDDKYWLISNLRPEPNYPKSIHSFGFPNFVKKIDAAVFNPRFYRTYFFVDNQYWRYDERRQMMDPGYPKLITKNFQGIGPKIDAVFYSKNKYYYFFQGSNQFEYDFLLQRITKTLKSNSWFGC
MMP-3, sequence (P08254 100-477, species assumed): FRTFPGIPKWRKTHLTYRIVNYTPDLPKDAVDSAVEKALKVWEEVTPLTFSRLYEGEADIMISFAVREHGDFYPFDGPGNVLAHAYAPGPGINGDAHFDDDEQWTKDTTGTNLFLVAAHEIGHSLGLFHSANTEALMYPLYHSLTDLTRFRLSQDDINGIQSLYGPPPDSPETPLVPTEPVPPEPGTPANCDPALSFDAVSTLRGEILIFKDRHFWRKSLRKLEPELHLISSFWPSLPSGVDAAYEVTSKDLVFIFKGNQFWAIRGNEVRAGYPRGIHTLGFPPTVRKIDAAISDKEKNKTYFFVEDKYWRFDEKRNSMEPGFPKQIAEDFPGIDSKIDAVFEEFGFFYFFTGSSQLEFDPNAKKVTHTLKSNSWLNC
MMP-8, sequence (P22894 101-467): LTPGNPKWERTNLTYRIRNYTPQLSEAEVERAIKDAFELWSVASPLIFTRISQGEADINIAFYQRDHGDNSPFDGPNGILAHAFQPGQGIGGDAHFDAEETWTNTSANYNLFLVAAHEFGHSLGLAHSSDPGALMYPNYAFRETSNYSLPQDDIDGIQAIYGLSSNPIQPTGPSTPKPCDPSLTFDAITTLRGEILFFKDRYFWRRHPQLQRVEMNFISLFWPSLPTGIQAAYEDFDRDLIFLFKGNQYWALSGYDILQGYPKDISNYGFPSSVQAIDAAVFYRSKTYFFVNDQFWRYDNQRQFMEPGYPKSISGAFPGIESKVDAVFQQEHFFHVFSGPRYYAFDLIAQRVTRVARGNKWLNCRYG
T1 sequence (P14780 107-444 limits assumed): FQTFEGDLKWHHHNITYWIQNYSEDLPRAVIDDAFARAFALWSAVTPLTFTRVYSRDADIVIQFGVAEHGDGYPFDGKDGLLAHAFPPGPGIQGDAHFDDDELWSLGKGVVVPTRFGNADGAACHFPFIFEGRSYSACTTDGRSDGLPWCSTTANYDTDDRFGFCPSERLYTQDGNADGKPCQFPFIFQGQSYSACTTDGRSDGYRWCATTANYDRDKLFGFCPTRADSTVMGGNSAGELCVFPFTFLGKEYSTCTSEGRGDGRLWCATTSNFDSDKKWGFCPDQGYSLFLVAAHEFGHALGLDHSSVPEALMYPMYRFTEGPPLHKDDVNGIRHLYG

Structure (SMILES) | solubility [1] | k, pseudo first-order rate constants calculated with an excess of H2O2 [2] | rate constant of conversion with an excess of H2O2 [2] | solution stability in buffer [5] | stability towards KO2 [6] | other results
O=c1ccccn1OCc1ccc(B(O)O)cc1 [Compound B11, (4-(((2-Oxopyridin-1(2H)-yl)oxy)methyl)phenyl)boronic acid] | improved solubility | 5.9 ± 0.2 M⁻¹ s⁻¹ | 5.9 M⁻¹ s⁻¹ |  |  | 
O=C(O)c1ccc(S(=O)(=O)On2ccccc2=O)cc1 [PZBG-1e, 4-(((2-Oxopyridin-1(2H)-yl)oxy)sulfonyl)benzoic acid] | substantial increase in solubility |  |  |  |  | pseudo-first order rate constant with an excess of H2O2 [3]: 1.3 M⁻¹ s⁻¹; cleavage in buffer [4]: ~50%
Cc1occc(=O)c1OCc1ccc(B2OC(C)(C)C(C)(C)O2)cc1 [Compound B20, 2-methyl-3-((4-(4,4,5,5-tetramethyl-1,3,2-dioxaborolan-2-yl)benzyl)oxy)-4H-pyran-4-one] |  |  | 2.9 M⁻¹ s⁻¹ | stable | stable towards KO2 | 
Cc1occc(=O)c1OCc1ccc(B(O)O)cc1 [Compound B10, (4-(((2-Methyl-4-oxo-4H-pyran-3-yl)oxy)methyl)phenyl)boronic acid] | improved solubility | 3.1 ± 0.5 M⁻¹ s⁻¹ |  |  |  | 
CC1(C)OB(c2ccc(COn3ccccc3=O)cc2)OC1(C)C [Compound B19, 1-((4-(4,4,5,5-tetramethyl-1,3,2-dioxaborolan-2-yl)benzyl)oxy)pyridin-2(1H)-one] |  |  | 4.0 M⁻¹ s⁻¹ | stable | stable towards KO2 | 
O=C(NCc1ccc(-c2ccccc2)cc1)c1cccc(=O)n1O [1,2-HOPO-2, N-(Biphenyl-4-ylmethyl)-1-hydroxy-6-oxo-1,6-dihydropyridine-2-carboxamide] |  |  |  |  |  | IC50 (MMP-3): < 100 nM; IC50 (MMP-12): < 100 nM; IC50 (MMP-8): < 100 nM; IC50 [7]: ~6000 nM
